Results from the NIST ThermoML archive (doi:10.1021/je060271a).
± gives the expanded uncertainty stated by the source.

Details: Liquid, Vibrating tube method

CCCC(=O)OCC(COC(=O)CCC)(COC(=O)CCC)COC(=O)CCC [pentaerythritol tetrabutyrate]
Details	mass density [kg/m3]
323.14 K, 26626 kPa	1043 ± 1.3
323.14 K, 26670 kPa	1042.8 ± 1.3
323.14 K, 26714 kPa	1042.8 ± 1.3
323.14 K, 26767 kPa	1043 ± 1.3
323.14 K, 26810 kPa	1043 ± 1.3
323.14 K, 26863 kPa	1043 ± 1.3
323.14 K, 26908 kPa	1043.1 ± 1.3
323.14 K, 26952 kPa	1043.1 ± 1.3
323.14 K, 26996 kPa	1043.1 ± 1.3
323.14 K, 27582 kPa	1043.5 ± 1.3
323.14 K, 27638 kPa	1043.5 ± 1.3
323.14 K, 27684 kPa	1043.6 ± 1.3
323.14 K, 27740 kPa	1043.6 ± 1.3
323.14 K, 27788 kPa	1043.6 ± 1.3
323.14 K, 27834 kPa	1043.6 ± 1.3
323.14 K, 27946 kPa	1043.8 ± 1.3
323.14 K, 28044 kPa	1043.9 ± 1.3
323.14 K, 28300 kPa	1044 ± 1.3
323.14 K, 28359 kPa	1044 ± 1.3
323.14 K, 28792 kPa	1044.3 ± 1.3
323.14 K, 28843 kPa	1044.3 ± 1.3
323.14 K, 28902 kPa	1044.3 ± 1.3
323.14 K, 28941 kPa	1044.3 ± 1.3
323.14 K, 29012 kPa	1044.3 ± 1.3
323.14 K, 29875 kPa	1044.9 ± 1.3
323.14 K, 29913 kPa	1045 ± 1.3
323.14 K, 29948 kPa	1045.1 ± 1.3
323.14 K, 29992 kPa	1045 ± 1.3
323.14 K, 30269 kPa	1045.3 ± 1.3
323.14 K, 30315 kPa	1045.2 ± 1.3
323.14 K, 30353 kPa	1045.4 ± 1.3
323.14 K, 30391 kPa	1045.3 ± 1.3
323.14 K, 30431 kPa	1045.3 ± 1.3
323.14 K, 30476 kPa	1045.2 ± 1.3
323.14 K, 30514 kPa	1045.3 ± 1.3
323.14 K, 32076 kPa	1046.4 ± 1.3
323.14 K, 32110 kPa	1046.4 ± 1.3
323.14 K, 32957 kPa	1046.8 ± 1.3
323.14 K, 33000 kPa	1046.9 ± 1.3
323.14 K, 33035 kPa	1046.8 ± 1.3
323.14 K, 33078 kPa	1046.9 ± 1.3
323.14 K, 33115 kPa	1046.9 ± 1.3
323.14 K, 33350 kPa	1047 ± 1.3
323.14 K, 33751 kPa	1047.3 ± 1.3
323.14 K, 33878 kPa	1047.3 ± 1.3
323.14 K, 33919 kPa	1047.4 ± 1.3
323.14 K, 33970 kPa	1047.4 ± 1.3
323.15 K, 3349 kPa	1027.1 ± 1.2
323.15 K, 3467.5 kPa	1027.3 ± 1.2
323.15 K, 3496.8 kPa	1027.3 ± 1.2
323.15 K, 3562.1 kPa	1027.3 ± 1.2
323.15 K, 5277.4 kPa	1028.8 ± 1.2
323.15 K, 5278.3 kPa	1028.7 ± 1.2
323.15 K, 5281.4 kPa	1028.8 ± 1.2
323.15 K, 5284.5 kPa	1028.8 ± 1.2
323.15 K, 5287 kPa	1028.7 ± 1.2
323.15 K, 5288.9 kPa	1028.7 ± 1.2
323.15 K, 5289.7 kPa	1028.8 ± 1.2
323.15 K, 5290.8 kPa	1028.8 ± 1.2
323.15 K, 5291.3 kPa	1028.8 ± 1.2
323.15 K, 5291.6 kPa	1028.8 ± 1.2
323.15 K, 5292 kPa	1028.8 ± 1.2
323.15 K, 5292.5 kPa	1028.8 ± 1.2
323.15 K, 5292.8 kPa	1028.8 ± 1.2
323.15 K, 5293.4 kPa	1028.7 ± 1.2
323.15 K, 5293.7 kPa	1028.9 ± 1.2
323.15 K, 5293.9 kPa	1028.8 ± 1.2
323.15 K, 5294 kPa	1028.7 ± 1.2
323.15 K, 5294.2 kPa	1028.9 ± 1.2
323.15 K, 5295.1 kPa	1028.9 ± 1.2
323.15 K, 5295.9 kPa	1029 ± 1.2
323.15 K, 5296.1 kPa	1028.7 ± 1.2
323.15 K, 5296.6 kPa	1028.7 ± 1.2
323.15 K, 5297 kPa	1028.8 ± 1.2
323.15 K, 5297.2 kPa	1028.8 ± 1.2
323.15 K, 5297.3 kPa	1028.9 ± 1.2
323.15 K, 5297.5 kPa	1028.8 ± 1.2
323.15 K, 5297.8 kPa	1028.8 ± 1.2
323.15 K, 5324.7 kPa	1028.9 ± 1.2
323.15 K, 5344.4 kPa	1028.9 ± 1.2
323.15 K, 5347.8 kPa	1028.8 ± 1.2
323.15 K, 5370.7 kPa	1028.8 ± 1.2
323.15 K, 5375.9 kPa	1028.8 ± 1.2
323.15 K, 5394.4 kPa	1028.9 ± 1.2
323.15 K, 5418.8 kPa	1029 ± 1.2
323.15 K, 5422.4 kPa	1028.9 ± 1.2
323.15 K, 5445.4 kPa	1028.9 ± 1.2
323.15 K, 5446.8 kPa	1028.9 ± 1.2
323.15 K, 5456 kPa	1028.9 ± 1.2
323.15 K, 5465.5 kPa	1028.9 ± 1.2
323.15 K, 5470.8 kPa	1029 ± 1.2
323.15 K, 5493.7 kPa	1028.9 ± 1.2
323.15 K, 5495.4 kPa	1028.9 ± 1.2
323.15 K, 5499.9 kPa	1029 ± 1.2
323.15 K, 5505.6 kPa	1028.9 ± 1.2
323.15 K, 5511.7 kPa	1028.8 ± 1.2
323.15 K, 5524.8 kPa	1029 ± 1.2
323.15 K, 5529.5 kPa	1029 ± 1.2
323.15 K, 5540.8 kPa	1028.9 ± 1.2
323.15 K, 5549.5 kPa	1029 ± 1.2
323.15 K, 5554.5 kPa	1029 ± 1.2
323.15 K, 5560.3 kPa	1028.9 ± 1.2
323.15 K, 5567.9 kPa	1028.9 ± 1.2
323.15 K, 5573.4 kPa	1028.9 ± 1.2
323.15 K, 5575 kPa	1029 ± 1.2
323.15 K, 5578 kPa	1029 ± 1.2
323.15 K, 5582.5 kPa	1029 ± 1.2
323.15 K, 5586.4 kPa	1028.9 ± 1.2
323.15 K, 5590.4 kPa	1029.1 ± 1.2
323.15 K, 5594.2 kPa	1029 ± 1.2
323.15 K, 5605.6 kPa	1029 ± 1.2
323.15 K, 5630.8 kPa	1029 ± 1.2
323.15 K, 5657.1 kPa	1029.1 ± 1.2
323.15 K, 5683.6 kPa	1029.1 ± 1.2
323.15 K, 5710.2 kPa	1029.1 ± 1.2
323.15 K, 5742 kPa	1029.1 ± 1.2
323.15 K, 5769.2 kPa	1029.2 ± 1.2
323.15 K, 5797 kPa	1029.2 ± 1.2
323.15 K, 5824.3 kPa	1029.2 ± 1.2
323.15 K, 5857.7 kPa	1029.2 ± 1.2
323.15 K, 5886.4 kPa	1029.2 ± 1.2
323.15 K, 5945.6 kPa	1029.2 ± 1.2
323.15 K, 5970.4 kPa	1029.2 ± 1.2
323.15 K, 6001.7 kPa	1029.3 ± 1.2
323.15 K, 6023.4 kPa	1029.3 ± 1.2
323.15 K, 6053.9 kPa	1029.4 ± 1.2
323.15 K, 6080.4 kPa	1029.4 ± 1.2
323.15 K, 6107 kPa	1029.4 ± 1.2
323.15 K, 6138.8 kPa	1029.4 ± 1.2
323.15 K, 6163.7 kPa	1029.4 ± 1.2
323.15 K, 6187.1 kPa	1029.4 ± 1.2
323.15 K, 6215.2 kPa	1029.6 ± 1.2
323.15 K, 6240.1 kPa	1029.4 ± 1.2
323.15 K, 6265 kPa	1029.5 ± 1.2
323.15 K, 6287.3 kPa	1029.5 ± 1.2
323.15 K, 6301.7 kPa	1029.5 ± 1.2
323.15 K, 6311 kPa	1029.5 ± 1.2
323.15 K, 6319.5 kPa	1029.4 ± 1.2
323.15 K, 6327.5 kPa	1029.6 ± 1.2
323.15 K, 6345.8 kPa	1029.6 ± 1.2
323.15 K, 6372.1 kPa	1029.6 ± 1.2
323.15 K, 6398.4 kPa	1029.7 ± 1.2
323.15 K, 6423.8 kPa	1029.8 ± 1.2
323.15 K, 6456.6 kPa	1029.6 ± 1.2
323.15 K, 6483.4 kPa	1029.6 ± 1.2
323.15 K, 6511.5 kPa	1029.6 ± 1.2
